Tests used:
[1] = system: clinically isolated MDR, XDR, and TDR M. tuberculosis strains; test: microbe, parasite or virus in culture; type: cell-based; conditions: Mycobacterium tuberculosis
M. arupense = test: microbe, parasite or virus in culture; type: cell-based, Mycobacterium arupense; conditions: Mycolicibacter arupensis
M. aubagnense = test: microbe, parasite or virus in culture; type: cell-based, Mycobacterium aubagnense; conditions: Mycolicibacterium aubagnense
M. chitae = test: microbe, parasite or virus in culture; type: cell-based, Mycobacterium chitae; conditions: Mycolicibacterium chitae
M. colombiense = test: microbe, parasite or virus in culture; type: cell-based; conditions: Mycobacterium colombiense
M. conceptionense = test: microbe, parasite or virus in culture; type: cell-based, Mycobacterium conceptionense; conditions: Mycolicibacterium senegalense
M. fortuitum = test: microbe, parasite or virus in culture; type: cell-based, Mycobacterium fortuitum; conditions: Mycolicibacterium fortuitum
M. gilvum = test: microbe, parasite or virus in culture; type: cell-based, Mycobacterium gilvum; conditions: Mycolicibacterium gilvum
M. gordonae = test: microbe, parasite or virus in culture; type: cell-based; conditions: Mycobacterium gordonae
M. kansasii = test: microbe, parasite or virus in culture; type: cell-based; conditions: Mycobacterium kansasii
M. kyorinense = test: microbe, parasite or virus in culture; type: cell-based; conditions: Mycobacterium kyorinense
M. marinum = test: microbe, parasite or virus in culture; type: cell-based; conditions: Mycobacterium marinum
M. marseiliense = test: microbe, parasite or virus in culture; type: cell-based; conditions: Mycobacterium
M. peregrinum = test: microbe, parasite or virus in culture; type: cell-based, Mycobacterium peregrinum; conditions: Mycolicibacterium peregrinum
Acinetobacter baumannii = test: Broth dilution MIC (CLSI); type: cell-based; conditions: read-out: MIC
Source text: (§1) Bacteria (Acinetobacter baumannii NCCP 14782, Citrobacter freundii NCCP 14766, Enterobacter aerogenes NCCP 14761, Escherichia coli NCCP 14762, Escherichia coli O157 NCCP 14541, Klebsiella pneumoniae NCCP 14764, Proteus mirabilis NCCP 14763, Proteus vulgaris NCCP 14765, Pseudomonas aeruginosa NCCP 14781, Salmonella Enteritidis NCCP 14771, Salmonella Paratyphi A NCCP 14759, Salmonella Typhimurium NCCP 16207, Serratia marcescens NCCP 14770, Shigella boydii NCCP 14745, Shigella dysenteriae NCCP 14746, Shigella flexneri NCCP 14744, Shigella sonnei NCCP 14773, Bacillus subtilis NCCP 11101, Corynebacterium diphtheriae NCCP 10353, Staphylococcus aureus MSSA NCCP 14780, Staphylococcus aureus MRSA NCCP 14769, Staphylococcus epidermidis NCCP 14768, Streptococcus pneumoniae NCCP 14774) and fungi (Aspergillus fumigatus NCCP 22454, Candida albicans NCCP 32557, Cryptococcus neoformans NCCP 32559, Microsporum canis NCCP 22454, Rhizopus oryzae NCCP 22458, Saccharomyces cerevisiae NCCP 32558, Trichophyton rubrum NCCP 22456) strains were obtained from the National Culture Collection for Pathogens (NCCP) (Chungbuk, Korea). The MIC of each agent was determined following the Clinical and Laboratory Standards Institute (CLSI).[40]

Aspergillus fumigatus = test: Broth dilution MIC (CLSI); type: cell-based; conditions: read-out: MIC
Source text: as §1

Bacillus subtilis = test: Broth dilution MIC (CLSI); type: cell-based; conditions: read-out: MIC
Source text: as §1

Candida albicans = test: Broth dilution MIC (CLSI); type: cell-based; conditions: read-out: MIC
Source text: as §1

Citrobacter freundii = test: Broth dilution MIC (CLSI); type: cell-based; conditions: read-out: MIC
Source text: as §1

[2] = system: Corynebacterium diphtheriae; test: Broth dilution MIC (CLSI); type: cell-based; conditions: read-out: MIC
Source text: as §1

Cryptococcus neoformans = test: Broth dilution MIC (CLSI); type: cell-based; conditions: read-out: MIC
Source text: as §1

Enterobacter aerogenes = test: Broth dilution MIC (CLSI); type: cell-based; conditions: Klebsiella aerogenes; Enterobacter aerogenes; read-out: MIC
Source text: as §1

Escherichia coli O157 = test: Broth dilution MIC (CLSI); type: cell-based; conditions: read-out: MIC
Source text: as §1

Escherichia coli = test: Broth dilution MIC (CLSI); type: cell-based; conditions: read-out: MIC
Source text: as §1

Klebsiella pneumoniae = test: Broth dilution MIC (CLSI); type: cell-based; conditions: read-out: MIC
Source text: as §1

Microsporum canis = test: Broth dilution MIC (CLSI); type: cell-based; conditions: read-out: MIC
Source text: as §1

Proteus mirabilis = test: Broth dilution MIC (CLSI); type: cell-based; conditions: read-out: MIC
Source text: as §1

Proteus vulgaris = test: Broth dilution MIC (CLSI); type: cell-based; conditions: read-out: MIC
Source text: as §1

Pseudomonas aeruginosa = test: Broth dilution MIC (CLSI); type: cell-based; conditions: read-out: MIC
Source text: as §1

Rhizopus oryzae = test: Broth dilution MIC (CLSI); type: cell-based; conditions: Rhizopus arrhizus; Rhizopus oryzae; read-out: MIC
Source text: as §1

Saccharomyces cerevisiae = test: Broth dilution MIC (CLSI); type: cell-based; conditions: read-out: MIC
Source text: as §1

Salmonella Enteritidis = test: Broth dilution MIC (CLSI); type: cell-based; conditions: Salmonella enterica; Salmonella Enteritidis; read-out: MIC
Source text: as §1

Salmonella Paratyphi A = test: Broth dilution MIC (CLSI); type: cell-based; conditions: Salmonella enterica; Salmonella Paratyphi A; read-out: MIC
Source text: as §1

Salmonella Typhimurium = test: Broth dilution MIC (CLSI); type: cell-based; conditions: Salmonella enterica; Salmonella Typhimurium; read-out: MIC
Source text: as §1

Serratia marcescens = test: Broth dilution MIC (CLSI); type: cell-based; conditions: read-out: MIC
Source text: as §1

Shigella boydii = test: Broth dilution MIC (CLSI); type: cell-based; conditions: read-out: MIC
Source text: as §1

Shigella dysenteriae = test: Broth dilution MIC (CLSI); type: cell-based; conditions: read-out: MIC
Source text: as §1

Shigella flexneri = test: Broth dilution MIC (CLSI); type: cell-based; conditions: read-out: MIC
Source text: as §1

Shigella sonnei = test: Broth dilution MIC (CLSI); type: cell-based; conditions: read-out: MIC
Source text: as §1

[3] = system: Staphylococcus aureus, MRSA; test: Broth dilution MIC (CLSI); type: cell-based; conditions: read-out: MIC
Source text: as §1

[4] = system: Staphylococcus aureus, MSSA; test: Broth dilution MIC (CLSI); type: cell-based; conditions: read-out: MIC
Source text: as §1

[5] = system: Staphylococcus epidermidis; test: Broth dilution MIC (CLSI); type: cell-based; conditions: read-out: MIC
Source text: as §1

Streptococcus pneumoniae = test: Broth dilution MIC (CLSI); type: cell-based; conditions: read-out: MIC
Source text: as §1

Measured: MIC

CCCCOc1ccc2cc(CN3C(=O)CC[C@H]3C(=O)OC)c3cc(OC)c(OC)cc3c2c1 [PP2S, Methyl (S)-1-((3-butoxy-6,7-dimethoxyphenanthren-9-yl)methyl)-5-oxopyrrolidine-2-carboxylate]
> 100 µg/mL: M. arupense | M. aubagnense | M. chitae | M. colombiense | M. conceptionense | M. fortuitum | M. gilvum | M. gordonae | M. kansasii | M. kyorinense | M. marinum | M. marseiliense | M. peregrinum | Acinetobacter baumannii | Aspergillus fumigatus | Bacillus subtilis | Candida albicans | Citrobacter freundii | [2] | Cryptococcus neoformans | Enterobacter aerogenes | Escherichia coli O157 | Escherichia coli | Klebsiella pneumoniae | Microsporum canis | Proteus mirabilis | Proteus vulgaris | Pseudomonas aeruginosa | Rhizopus oryzae | Saccharomyces cerevisiae | Salmonella Enteritidis | Salmonella Paratyphi A | Salmonella Typhimurium | Serratia marcescens | Shigella boydii | Shigella dysenteriae | Shigella flexneri | Shigella sonnei | [3] | [4] | [5] | Streptococcus pneumoniae
1.6 µg/mL: [1]; TDR-1 | [1]; TDR-3
0.2 µg/mL: [1]; TDR-2

— publication PMC9154192 (PLoS Biology, 2022)
